{"source": "patent US20240016881A1", "about": "“Coronavirus Therapy” (priority 2020, published 2024)", "key": {"[1]": {"assay": "Fasting plasma glucagon in subjects with Type 2 diabetes treated with NDX-90 peptide", "type": "in vivo, human", "source_text": "The inventor then measured the effect of NDX-90 peptide treatment over several months on fasting plasma glucagon levels in subjects with Type 2 diabetes."}, "[2]": {"test_system": "isolated rat islet cultures", "assay": "Glucagon levels secreted from isolated rat islet cultures, medium plus NDX-90 vs medium alone", "type": "cell-based", "conditions": "for Glucagon level (pg/ml) Medium plus NDX-90: NDX-90 1 μg/ml, 11 mmol/L glucose; for Percentage reduction of glucagon secretion: vs medium alone", "experimental": "Isolated islets were suspended in RPMI 1640 containing 11 mmol/L (200 mg/dL) glucose and 10% FCS. The glucose concentration simulates a diabetic environment. NDX-90 was dissolved in the culture medium and added to the appropriate wells at a final concentration of 1 μg/ml. After the specified incubation times, samples were removed for glucagon measurements using Quantikine ELISA Immunoassay (R&D Systems).\nThe inventor measured glucagon levels secreted from isolated rat islet cultures, to determine whether NDX-90 was capable of reducing glucagon levels."}, "[3]": {"assay": "ELISA binding of NDX-90 peptide to cardiolipin-coated microtitre plate", "source_text": "Each mean and standard deviation is for three observations."}, "soluble ACE2": {"test_system": "soluble ACE2", "assay": "Soluble ACE2 ELISA in cultures of human islet cells from Type 2 diabetes tissue donors", "type": "cell-based", "conditions": "for % reduction soluble ACE2 100-(T/Cx100): vs control cultures", "experimental": "The inventor next measured the effect of NDX-90 peptide on soluble ACE2 levels in cultures of human islet cells from Type 2 diabetes tissue donors. Human pancreatic islet cells were cultured in 24-well tissue culture plates. Two series of cultures were set up. NDX-90 peptide solution was added to one series and an equivalent amount of culture medium was added to the second series. Supernatant samples were removed from the test and control cultures at 4, 24 and 48 hours after addition of the treatment. Supernatant samples were removed only once from each test and control well for each time point. The samples were tested for soluble ACE2 by the use of a commercial ELISA kit according to the manufacturer's instructions."}, "[4]": {"test_system": "buccal tissue culture inserts", "assay": "Buccal tissue permeability (cell permeation, HPLC peak area of supernatant)", "type": "in vitro ADME", "experimental": "Buccal tissue culture inserts were transferred from the original tissue culture 24-well plates (maintained at 4° C. in sealed bags containing 5% CO2) under sterile conditions into wells of a fresh 24-well plate containing 1.0 ml serum free medium pre-warmed to 37° C. The plate was incubated in a humidified incubator at 37° C. in a 5% CO2 atmosphere for one hour as a pre-equilibration procedure prior to dosing. After removal from the incubator, any culture medium over the surface of the tissue was carefully removed and replaced with 40 μL of appropriately diluted peptide solution in serum free culture medium. The plate was incubated for further 30 minutes at 37° C. in a 5% CO2 atmosphere. The plate was removed from the incubator and supernatant samples were taken and analysed by HPLC. The main peak areas of the supernatants were compared to those of the pre-incubation stock samples.\nThe inventor next measured buccal tissue permeability of NDX-90 peptide, to determine its uptake."}}, "note": "Where “and” joins values, the source holds several entries; their conditions need not be identical. Equal entries are not always repeated. Where no end group is shown, it is not given here.", "data": [{"sequence": "QQYNSYPLT (also: dimer) [NDX-90, b142 says NDX-90 is a dimer]", "values": [{"measurement": "Improvement in fasting glucagon towards normality", "setting": "[1]; 9.61 pg/ml relative to literature excess of 12.2 pg/ml in Type 2 diabetes vs nondiabetic controls", "value": 78.8, "unit": "%"}, {"measurement": "Difference baseline vs treated fasting plasma glucagon", "setting": "[1]; day 1 vs mean of days 43, 99 and 113, P = 0.009, listed as NDX-90 peptide", "value": 9.61, "unit": "pg/mL"}, {"measurement": "Baseline ± sd fasting plasma glucagon", "setting": "[1]; mean baseline on day 1, n = 23, Type 2 diabetes", "value": "103 ± 38.3", "unit": "pg/mL"}, {"measurement": "Treated ± sd fasting plasma glucagon", "setting": "[1]; mean of measurements on days 43, 99 and 113, n = 23, Type 2 diabetes", "value": "93.47 ± 32.3", "unit": "pg/mL"}, {"measurement": "Difference (pg/ml) medium alone vs medium plus NDX-90", "setting": "[2]; 4 hours", "value": 203.0, "unit": "pg/mL"}, {"measurement": "Glucagon level (pg/ml) Medium plus NDX-90", "setting": "[2]; 4 hours", "value": "419.3 ± 2.5", "unit": "pg/mL"}, {"measurement": "Percentage reduction of glucagon secretion", "setting": "[2]; 4 hours", "value": "32% and 32.4%"}, {"measurement": "Difference (pg/ml) medium alone vs medium plus NDX-90", "setting": "[2]; 24 hours", "value": 102.9, "unit": "pg/mL"}, {"measurement": "Glucagon level (pg/ml) Medium plus NDX-90", "setting": "[2]; 24 hours", "value": "149.6 ± 6.7", "unit": "pg/mL"}, {"measurement": "Percentage reduction of glucagon secretion", "setting": "[2]; 24 hours", "value": 40.9, "unit": "%"}, {"measurement": "Glucagon level (pg/ml) Medium plus NDX-90", "setting": "[2]; 48 hours", "value": "63.4 ± 1.3", "unit": "pg/mL"}, {"measurement": "Percentage reduction of glucagon secretion", "setting": "[2]; 48 hours", "value": 0, "unit": "%"}, {"measurement": "Binding to cardiolipin", "setting": "[3]", "value": "has the capacity to bind to cardiolipin"}, {"measurement": "Ratio Test/Control (cardiolipin / alcohol optical density)", "setting": "[3]", "value": 2.23}, {"measurement": "Optical density reading in ELISA, cardiolipin-coated plate", "setting": "[3]; mean and standard deviation for three observations", "value": "0.254 ± 0.012"}, {"measurement": "% reduction soluble ACE2 100-(T/Cx100)", "setting": "soluble ACE2; 4 hours", "value": 5.3, "unit": "%"}, {"measurement": "% reduction soluble ACE2 100-(T/Cx100)", "setting": "soluble ACE2; 4 hours, listed as NDX-90 Peptide", "value": 5.3, "unit": "%"}, {"measurement": "% reduction soluble ACE2 100-(T/Cx100)", "setting": "soluble ACE2; 24 hours", "value": 6.25, "unit": "%"}, {"measurement": "% reduction soluble ACE2 100-(T/Cx100)", "setting": "soluble ACE2; 24 hours, listed as NDX-90 Peptide", "value": 6.25, "unit": "%"}, {"measurement": "Reduction of soluble ACE2", "setting": "soluble ACE2; 48 hours", "value": "No further reduction"}, {"measurement": "Transmissibility across / uptake by buccal tissue", "setting": "[4]", "value": "efficient uptake"}, {"measurement": "Transmissibility %", "setting": "[4]; Table 5 screening, 30 minutes", "value": 94.1, "unit": "%"}, {"measurement": "Peak Area by HPLC of Peptides in solution Pre-overlay", "setting": "[4]; Table 5 screening, stock before incubation", "value": 4142}, {"measurement": "Peak Area by HPLC of Peptides in solution Post-overlay", "setting": "[4]; Table 5 screening, supernatant after 30 minutes at 37° C.", "value": 243}, {"measurement": "Peak Area by HPLC R1", "setting": "[4]; Table 6, replicate culture 1", "value": 276}, {"measurement": "Transmissibility T % (R1)", "setting": "[4]; Table 6, replicate culture 1", "value": 93.3, "unit": "%"}, {"measurement": "Peak Area by HPLC R3", "setting": "[4]; Table 6, replicate culture 3", "value": 0}, {"measurement": "Transmissibility T % (R3)", "setting": "[4]; Table 6, replicate culture 3", "value": 100, "unit": "%"}, {"measurement": "Peak Area by HPLC Pre-overlay", "setting": "[4]; Table 6 triplicate cultures, stock", "value": 4142}]}]}
